Data published in patent US20240207374A1, “LIPID NANOPARTICLES CONTAINING POLYNUCLEOTIDES ENCODING GLUCOSE-6-PHOSPHATASE AND USES THEREOF” (ModernaTX, Inc., priority 2021, published 2024).

Experiment: Residual parent lipid levels in the liver of mice (hEPO mRNA LNP)
Assay type: in vivo
Settings: CD-1 mice

Question: With `CCCCCCCCC(CCCCCCCC)OC(=O)CCCCCCCN(CCO)CCCCCCCC(=O)OCCC(CCCC)CCCC` [Compound 22, 3-Butylheptyl 8-((8-(heptadecan-9-yloxy)-8-oxooctyl)(2-hydroxyethyl)amino)octanoate] as the compound, how does the “Parent Lipid Remaining at 24 h” value read?
Answer: Its value is <0.1 nmol/g liver tissue.

Question: With `CCCCCC(CCCCC)CCOC(=O)CCCCCCCN(CCCCCCCC(=O)OC(CCCC)CCCC)CCCNc1c(NC)c(=O)c1=O` [Compound 58] as the compound, how does the “Parent Lipid Remaining at 24 h” value read?
Answer: Its value is 15 ± 2 nmol/g liver tissue.

Question: Which “Parent Lipid Remaining at 24 h” value does the source give for `CCCCCCCCC(CCCCCCCC)OC(=O)CCCCCCCN(CCO)CCCCCCCC(=O)OCCC(CCCCC)CCCCC` [Compound 24] here?
Answer: The value was 3 ± 1 nmol/g liver tissue.

Question: Which “Parent Lipid Remaining at 24 h” value does the source give for `CCCCCCCCC(CCCCCCCC)OC(=O)CCCCCCCN(CCCCCCCC(=O)OCCCC(CCCCC)CCCCC)CCCNc1c(NC)c(=O)c1=O` [Compound 32] here?
Answer: Its value is 69 ± 17 nmol/g liver tissue.

Question: For `CCCCCC(CCCCC)CCOC(=O)CCCCCCCN(CCCCCCCC(=O)OC(CCCCC)CCCCC)CCCNc1c(NC)c(=O)c1=O` [Compound 57], which “Parent Lipid Remaining at 24 h” value is on record?
Answer: Its value is 12 ± 1 nmol/g liver tissue.

Question: Which “Parent Lipid Remaining at 24 h” value does the source give for `CCCCCCCCC(CCCCCCCC)OC(=O)CCCCCCCN(CCO)CCCCCCCC(=O)OCCCC(CCCCC)CCCCC` [Compound 31] here?
Answer: The value was 2 ± 0.6 nmol/g liver tissue.

Question: Which “Parent Lipid Remaining at 24 h” value does the source give for `CCCCCCCCC(CCCCCCCC)OC(=O)CCCCCCCN(CCCCCCCC(=O)OCCC(CCCCC)CCCCC)CCCNc1c(NC)c(=O)c1=O` [Compound 29] here?
Answer: Its value is 66 ± 16 nmol/g liver tissue.

Question: For `CCCCCC(CCCCC)CCCOC(=O)CCCCCCCN(CCCCCCCC(=O)OCCCC(CCCCC)CCCCC)CCCNc1c(NC)c(=O)c1=O` [Compound 34], which “Parent Lipid Remaining at 24 h” value is on record?
Answer: Its value is 12 ± 2 nmol/g liver tissue.

Question: For `CCCCCCCCC(CCCCCCCC)COC(=O)CCCCCN(CCCCCCCC(=O)OC(CC)CCCCCCCC)CCCNc1c(NC)c(=O)c1=O` (stereo not shown) [Compound 14], which “Parent Lipid Remaining at 24 h” value is on record?
Answer: Its value is 56 ± 6 nmol/g liver tissue.

Question: Which “Parent Lipid Remaining at 24 h” value does the source give for `CCCCCCCCC(CCCCCC)COC(=O)CCCCCN(CCCCCCCC(=O)OC(CC)CCCCCCCC)CCCNc1c(NC)c(=O)c1=O` (stereo not shown) [Compound 15] here?
Answer: Its value is 51 ± 4 nmol/g liver tissue.

Question: With `CCCCCC(CCCCC)CCCOC(=O)CCCCCCCN(CCO)CCCCCCCC(=O)OCCCC(CCCCC)CCCCC` [Compound 33] as the compound, how does the “Parent Lipid Remaining at 24 h” value read?
Answer: The value was 0.5 ± 0.3 nmol/g liver tissue.

Question: For `CCCCCCCCC(CCCCCCCC)OC(=O)CCCCCCCN(CCCCCCCC(=O)OCCC(CCCCCC)CCCCCC)CCCNc1c(NC)c(=O)c1=O` [Compound 26], which “Parent Lipid Remaining at 24 h” value is on record?
Answer: The value was 141 ± 15 nmol/g liver tissue.

Question: Which “Parent Lipid Remaining at 24 h” value does the source give for `CCCCC(CCCC)CCOC(=O)CCCCCCCN(CCCCCCCC(=O)OC(CCCC)CCCC)CCCNc1c(NC)c(=O)c1=O` [Compound 62] here?
Answer: The value was 1.8 ± 0.6 nmol/g liver tissue.

Question: Which “Parent Lipid Remaining at 24 h” value does the source give for `CCCCCCCCC(CCCCCCCC)OC(=O)CCCCCCCN(CCCCCCCC(=O)OCCC1CCC(CC)C1)CCCNc1c(NC)c(=O)c1=O` (stereo not shown) [Compound 40] here?
Answer: Its value is 3 ± 0.3 nmol/g liver tissue.

Question: For `CCCCC(CCCC)OC(=O)CCCCCCCN(CCCCCCCC(=O)OCCC(CCC)CCC)CCCNc1c(NC)c(=O)c1=O` [Compound 66], which “Parent Lipid Remaining at 24 h” value is on record?
Answer: The value was 0.1 ± 0.03 nmol/g liver tissue.

Question: Which “Parent Lipid Remaining at 24 h” value does the source give for `CCCCCCCCC(CCCCCCCC)OC(=O)CCCCCCCN(CCCCCCCC(=O)OCCC(CCCC)CCCC)CCCNc1c(NC)c(=O)c1=O` [Compound 27, 3-Butylheptyl 8-((8-(heptadecan-9-yloxy)-8-oxooctyl)(3-((2-(methylamino)-3,4-dioxocyclobut-1-en-1-yl)amino)propyl)amino)octanoate] here?
Answer: Its value is 27 ± 4 nmol/g liver tissue.

Question: With `CCCCCC(CCCCC)CCOC(=O)CCCCCCCN(CCO)CCCCCCCC(=O)OCCC(CCCCC)CCCCC` [Compound 25] as the compound, how does the “Parent Lipid Remaining at 24 h” value read?
Answer: Its value is 0.1 ± 0.04 nmol/g liver tissue.

Question: Which “Parent Lipid Remaining at 24 h” value does the source give for `CCCCCCCCC(CCCCCCCC)OC(=O)CCCCCCCN(CCCCCCCC(=O)OCCC(CCCC)CCCCCC)CCCNc1c(NC)c(=O)c1=O` (stereo not shown) [Compound 20] here?
Answer: The value was 65 ± 5 nmol/g liver tissue.

Question: For `CCCCCC(CCCCC)CCOC(=O)CCCCCCCN(CCCCCCCC(=O)OCCC(CCCC)CCCC)CCCNc1c(NC)c(=O)c1=O` [Compound 54, 3-Butylheptyl 8-((3-((2-(methylamino)-3,4-dioxocyclobut-1-en-1-yl)amino)propyl)(8-oxo-8-((3-pentyloctyl)oxy)octyl)amino)octanoate], which “Parent Lipid Remaining at 24 h” value is on record?
Answer: The value was 12 ± 1 nmol/g liver tissue.

Question: With `CCCCCCCCC(CCCCCCCC)OC(=O)CCCCCCCN(CCO)CCCCCCCC(=O)OCCC1CCC(CC)C1` (stereo not shown) [Compound 37] as the compound, how does the “Parent Lipid Remaining at 24 h” value read?
Answer: The value was <0.1 nmol/g liver tissue.

Question: For `CCCCCCCCC(CCCCCCCC)OC(=O)CCCCCCCN(CCCCCCCC(=O)OCC(CCCCC)CCCCCCC)CCCNc1c(NC)c(=O)c1=O` (stereo not shown) [Compound 16], which “Parent Lipid Remaining at 24 h” value is on record?
Answer: Its value is 77 ± 3 nmol/g liver tissue.

Question: Which “Parent Lipid Remaining at 24 h” value does the source give for `CCCCCC(CCCCC)CCOC(=O)CCCCCCCN(CCCCCCCC(=O)OCCC(CCCCC)CCCCC)CCCNc1c(NC)c(=O)c1=O` [Compound 30, Bis(3-pentyloctyl) 8,8′-((3-((2-(methylamino)-3,4-dioxocyclobut-1-en-1-yl)amino)propyl)azanediyl)dioctanoate] here?
Answer: The value was 25 ± 4 nmol/g liver tissue.

Question: For `CCCCCCCCC(CCCCCCCC)OC(=O)CCCCCCCN(CCCCCCCC(=O)OCC(CCCCCCC)C(C)C)CCCNc1c(NC)c(=O)c1=O` (stereo not shown) [Compound 19], which “Parent Lipid Remaining at 24 h” value is on record?
Answer: Its value is 73 ± 6 nmol/g liver tissue.

Question: Which “Parent Lipid Remaining at 24 h” value does the source give for `CCCCCCC(CCCCCC)OC(=O)CCCCCCCN(CCCCCCCC(=O)OCCC(CCC)CCC)CCCNc1c(NC)c(=O)c1=O` [Compound 64] here?
Answer: Its value is 4.9 ± 0.9 nmol/g liver tissue.

Question: Which “Parent Lipid Remaining at 24 h” value does the source give for `CCCCCCC(CCCCCC)OC(=O)CCCCCCCN(CCCCCCCC(=O)OCCC(CCCC)CCCC)CCCNc1c(NC)c(=O)c1=O` [Compound 60] here?
Answer: Its value is 8.5 ± 0.6 nmol/g liver tissue.

Question: With `CCCCCCCCC(CCCCCCCC)OC(=O)CCCCCCCN(CCO)CCCCCCCC(=O)OCCC(CCCC)CCCCCC` (stereo not shown) [Compound 7] as the compound, how does the “Parent Lipid Remaining at 24 h” value read?
Answer: The value was 0.3 ± 0.2 nmol/g liver tissue.

Question: Which “Parent Lipid Remaining at 24 h” value does the source give for `CCCCCC(CCCCC)OC(=O)CCCCCCCN(CCCCCCCC(=O)OCCC(CCC)CCC)CCCNc1c(NC)c(=O)c1=O` [Compound 65] here?
Answer: Its value is 0.9 ± 0.3 nmol/g liver tissue.

Question: For `CCCCCC(CCCCC)CCOC(=O)CCCCCCCN(CCCCCCCC(=O)OCCC(CCC)CCC)CCCNc1c(NC)c(=O)c1=O` [Compound 51], which “Parent Lipid Remaining at 24 h” value is on record?
Answer: The value was 4 ± 0.6 nmol/g liver tissue.

Question: Which “Parent Lipid Remaining at 24 h” value does the source give for `CCCCCCC(CCCCCC)CCOC(=O)CCCCCCCN(CCO)CCCCCCCC(=O)OCCC(CCCCCC)CCCCCC` [Compound 23] here?
Answer: Its value is 24 ± 3 nmol/g liver tissue.

Question: Which “Parent Lipid Remaining at 24 h” value does the source give for `CCCCCCCCC(CCCCCCCC)OC(=O)CCCCCCCN(CCCCCCCC(=O)OCCC(CCCCCC)C(C)C)CCCNc1c(NC)c(=O)c1=O` (stereo not shown) [Compound 17] here?
Answer: The value was 35 ± 5 nmol/g liver tissue.

Question: Which “Parent Lipid Remaining at 24 h” value does the source give for `CCCCCCCCC(CCCCCCCC)OC(=O)CCCCCCCN(CCCCCCCC(=O)OCCC1CCC(CCC)CC1)CCCNc1c(NC)c(=O)c1=O` (stereo not shown) [Compound 39] here?
Answer: The value was 4 ± 1 nmol/g liver tissue.

Question: For `CCCCCCCCC(CCCCCCCC)OC(=O)CCCCCCCN(CCO)CCCCCCCC(=O)OCCC1CCC(CC)CC1` (stereo not shown) [Compound 35], which “Parent Lipid Remaining at 24 h” value is on record?
Answer: Its value is <0.1 nmol/g liver tissue.

Question: Which “Parent Lipid Remaining at 24 h” value does the source give for `CCCC(CCC)CCOC(=O)CCCCCCCN(CCCCCCCC(=O)OCCC(CCC)CCC)CCCNc1c(NC)c(=O)c1=O` [Compound 53] here?
Answer: Its value is <1 nmol/g liver tissue.

Question: For `CCCCC(CCCC)CCOC(=O)CCCCCCCN(CCCCCCCC(=O)OCCC(CCC)CCC)CCCNc1c(NC)c(=O)c1=O` [Compound 52], which “Parent Lipid Remaining at 24 h” value is on record?
Answer: The value was <1 nmol/g liver tissue.

Question: Which “Parent Lipid Remaining at 24 h” value does the source give for `CCCCCCCC(CCCCCCC)OC(=O)CCCCCCCN(CCCCCCCC(=O)OCCC(CCC)CCC)CCCNc1c(NC)c(=O)c1=O` [Compound 63] here?
Answer: Its value is 8.9 ± 2.8 nmol/g liver tissue.

Question: Which “Parent Lipid Remaining at 24 h” value does the source give for `CCCCCC(CCCCC)OC(=O)CCCCCCCN(CCCCCCCC(=O)OCCC(CCCC)CCCC)CCCNc1c(NC)c(=O)c1=O` [Compound 61] here?
Answer: Its value is 5.1 ± 0.8 nmol/g liver tissue.

Question: Which “Parent Lipid Remaining at 24 h” value does the source give for `CCCCCCC(CCCCCC)CCOC(=O)CCCCCCCN(CCCCCCCC(=O)OCCC(CCCCCC)CCCCCC)CCCNc1c(NC)c(=O)c1=O` [Compound 28] here?
Answer: Its value is 58 ± 7 nmol/g liver tissue.
